Patent publication US20150017638A1, “METHODS FOR ASSESSING RISK FOR CANCER USING BIOMARKERS” (THE TRUSTEES OF THE UNIVERSITY OF PENNSYLVANIA, priority 2012, published 2015)

Assays:
[1] = tested on: Primary cell lines derived from PanIN mice (sorted YFP+ cells); test: In vitro exposure of PanIN-derived primary cell lines to cerulein, dexamethasone, TGF-b; format: cell-based, mouse; conditions: 48 hr; for cell morphology: dexamethasone 1 mM, vs DMSO vehicle
Protocol: Cells destined for transcriptional analysis were sorted into either RLT buffer (QIAGEN) or Trizol LS Reagent (Invitrogen). RNA was extracted from samples >1,000 cells using the RNEasy kit (QIAGEN). RNA from samples with fewer cells, including all sorted blood cell samples, was isolated using the PicoPure Extraction kit as directed (Arcturus). qPCR was performed as previously described (Zong et al., 2009), and primary sequences used are listed in Table 1, below. Relative expression was determined after adjusting for GAPDH. Genomic DNA was extracted from sorted CPCs pooled from three tumor-bearing mice using phenol or DNeasy kit (QIAGEN).
Primary cell lines were derived from PanIN mice after sorting pancreas single-cell suspensions for YFP^+ cells. Sorted YFP^+ cells were then placed in six-well plates in pancreatic ductal cell media (Schreiber et al., 2004) and passaged at 80% confluence, Cells were transferred to multiple 6-well plates (250,000 cells per well) in pancreatic ductal cell media containing DMSO vehicle, cerulein (100 nM, Sigma), dexamethasone (Dex, 1 mM, Sigma), TGF-b (5 ng/ml, Peprotech), or Dex (1 mM) and TGF-b (5 ng/ml). Morphology was photodocumented at 6 hr, 24 hr, and 48 hr after treatment using an inverted microscope. After 48 hr of exposure, cells were counted and RNA isolated, cDNA synthesized, and qPCR performed as described above.

murine PanIN disease = conditions: Guerra et al., 2011; cited from earlier work
[2] = tested on: CY, KCY, PanIN PKCY, and PDAC PKCY mice; test: Experimental acute pancreatitis elicited with cerulein in lineage-labeled mice; format: in vivo, mouse
Excerpt: The behavior of mutant strains bearing various allele combinations of Pdx1-Cre KrasG12D, p16/p19fl, and p53fl has been described previously (Aguirre et al., 2003; Bardeesy et al., 2006; Hingorani et al., 2003; and U.S. patent application Ser. No. 11/503,499, the contents of which are expressly incorporated herein by reference). To perform lineage tracing, a RosaYFP reporter allele was introduced into these mutant backgrounds to generate a panel of compound mutant strains: Pdx1-Cre; RosaYFP (“CY”), Pdx 1-Cre; KrasG12D; RosaYFP (“KCY”), Pdx1-Cre; KrasG12D; p16/p19fl/+; RosaYFP (“IKCY”), and Pdx1-Cre; KrasG12D; p53fl/+; RosaYFP (“PKCY”). All experiments involving the KCY model employed mice between 8 and 10 weeks of age. For studies involving mice harboring only PaniN lesions by histologic analysis (“PanIN” mice), PKCY animals were sacrificed at 8-10 weeks of age based on prior observations regarding tumor progression (Bardeesy et al., 2006); no PKCY mice (out of 18 examined) had evidence of carcinoma at this time point. […] More than 90% of IKCY and PKCY mice were 34-38 weeks of age or 16-20 weeks of age, respectively, at the time of sacrifice.
Experimental pancreatitis was elicited with cerulein as described (Siveke et al., 2008), and specimens were obtained after 3 days of treatment. Three to four CY, KCY, PanIN PKCY, and PDAC PKCY were used for cerulein and vehicle (PBS) treated cohorts. Orthotopic transplantations were performed on NOD/SCID mice by injecting 1×10^5 sorted pancreas cells as previously described (Mohammad et al., 1998). PKCY PanIN mice aged 10 weeks were treated with seven daily injections of dexamethasone or vehicle (DMSO) as described (Stairs et al., 2011) and analyzed 24 hours later.
For experiments involving flow cytometry and sorting of pancreatic cells, at least 25% of the tissue was saved for histologic analysis and was processed and stained. To create a single cell suspension, pancreatic tissue was rinsed vigorously in cold DMEM/F12 three times before mincing with scissors (approximately 100 chops). The minced pieces were then incubated in preheated collagenase with protease inhibitors (2 mg/ml; Sigma) for 20 min at 37° C. Vigorous vortexing was performed every 5 min during this incubation. The dissolved pieces were then poured over a […] cell strainer. The flow through was resuspended in cold 2% FCS/DMEM/F12, centrifuged, washed once, and kept on ice in the dark. Enriched blood samples or dissociated pancreatic specimens were stained for various markers prior to flow cytometric analysis (FACS Calibur, BD, or Accuri C6, Accuri Cytometers) or flow sorting (FACSVantage with FACSDiva option, BD). For analysis and sorting based on endogenous YFP and surface markers, primary antibodies (1:100) and secondary antibodies (1:50) were incubated with cells in 10% FCS/DMEM/F12 for 20 min at 4° C. Primary PanIN cell lines from IKCY and PKCY mice were used as positive controls. Isotype controls were also run. For intracellular staining of CPCs and pancreas cells, cells were washed with 10% FCS/DMEM/F12 before washing in freshly prepared 13fixation/permeabilization solution (Fix/Perm; eBioscience) followed by incubation in Fix/Perm for 30 min in the dark at 4° C. Cells were washed twice with 13 permeabilization buffer (Perm; eBioscience) before incubation in Block-P solution (10% FCS in freshly prepared Perm). After 15 min at 4° C., primary antibodies were added and incubated for an additional 20 min on ice. […]

[3] = cerulein 100 nM, Dex 1 mM, triplicate

C[C@@H]1C[C@H]2[C@@H]3CCC4=CC(=O)C=C[C@]4(C)[C@@]3(F)[C@@H](O)C[C@]2(C)[C@@]1(O)C(=O)CO [dexamethasone]
expression of a panel of epithelial or mesenchymal markers (qPCR) [1, 3]: no effect

CC1=C(CC(=O)O)c2cc(F)ccc2/C1=C\c1ccc([S+](C)[O-])cc1 (stereo not shown) [sulindac]
PanIN disease (murine PanIN disease): regression of murine PanIN disease

TGF-b
expression of epithelial markers (qPCR) ([1]; TGF-b 5 ng/ml, triplicate): significant downregulation of epithelial markers
expression of mesenchymal markers Zeb1 and N-cad (qPCR) ([1]; TGF-b 5 ng/ml, triplicate): increase in the expression of the mesenchymal markers Zeb1 and N-cad
cell morphology ([1]; cerulein 100 nM, TGF-b 5 ng/ml): acquisition of a fibroblast-like morphology

cerulein
expression of a panel of epithelial or mesenchymal markers (qPCR) [1, 3]: no effect
proliferation [1, 3]: no effect on proliferation
cell morphology ([1]; cerulein 100 nM, TGF-b 5 ng/ml): identical morphology as vehicle-treated cells
circulating pancreatic cell (CPC) number ([2]; 8-week-old KCY mice, 3 days of cerulein vs vehicle): marked elevation in circulating cells
pancreas histology (ADMI and PanIN formation) ([2]; KCY mice, 8-week-old, 3 days of cerulein treatment vs vehicle): formation of ADMIs and accelerated PanIN formation
frequency of EMT in pancreas ([2]; PDAC mice, cerulein compared to vehicle): little change in the frequency of EMT
circulating pancreatic cell (CPC) number ([2]; across all groups (CY, KCY, PKCY PanIN, PDAC), p=0.014 by two-way ANOVA): significant increase in CPC number
EMT (YFP+Zeb1+ cells) in pancreas ([2]; control (CY) and KCY mice): emergence of YFP^+Zeb1^+ cells
